From patent US20250090576A1, “METHODS FOR TREATING NONTUBERCULOUS MYCOBACTERIA DISEASES” (Microbion Corporation, priority 2022, published 2025)
≈ marks a conversion by molar mass, not a printed value.

Legend:
Format in all cases: cell-based
M. abscessus MABS11 = test: MIC (Table 8); settings: Mycobacteroides abscessus
[1] = tested on: M. abscessus MABS11 biofilm; test: MBEC assay (minimum biofilm eradication concentration); settings: 18 h challenge
Text: (§1) In this study the MBEC assay was followed as described in the Innovotech Procedural Manual, version 2.1 with minor modifications to assess the antibiofilm activity of the antimicrobial compounds under investigation. The MBEC value refers to the Minimum Biofilm Eradication Concentration of each antimicrobial for each strain. The MBEC value is defined as the minimum antibiotic concentration where the optical density (OD) value at recovery is less than 10% of the control OD value and there is no growth observed with visual examination of the wells.
(§2) Step 1: Inoculation. For resuscitation, all strains were streaked on TSA plates, except for the mycobacteria which were streaked on 7H10 media, from the frozen stocks, and grew overnight at 37° C. (Table 6). From the plate, one colony was picked for inoculation in organism specific medium (OSM) and grown in a shaker incubator at 37° C. at 225 RPM until mid-log phase (OD 0.2-0.8). At mid log phase the culture was diluted in OSM medium (Table 6) to an OD of 0.05. 150 μL of it were aliquoted in each corresponding well in a 96-well MBEC plate (inoculation plate). Subsequently, the MBEC plates were incubated static at 37° C. for the appropriate time for each species (Table 7). During incubation, biofilm formed on the pegs.
(§3) Step 2: Challenge. Following incubation, the peg lid with the biofilm was washed twice in PBS and placed on a second 96-well plate with 200 μl of antibiotic dilutions (challenge plate). The challenge plate was then incubated at 37° C. for 18 h to allow exposure of the biofilm to antibiotics.
(§4) Step 3: Recovery. In the final step, the peg lid (with the biofilm after treatment with the antibiotics) was washed again twice in PBS and placed on a third 96-well plate (recovery plate) with 200 μl growth medium in each well to allow growth of any bacterial cells resistant to antibiotics at any concentration. The recovery of resistant cells was assessed by an end-point measurement of the optical density at 600 nm (OD600) for each well with a plate reader (FIG. 4).

[2] = tested on: M. abscessus MABS2 biofilm; test: as above; settings: 18 h challenge
Text: as §1, §2, §3, §4

[3] = tested on: M. abscessus MABS1 biofilm; test: as above; settings: 18 h challenge
Text: as §1, §2, §3, §4

[4] = tested on: M. abscessus MABS4 biofilm; test: as above; settings: 18 h challenge
Text: as §1, §2, §3, §4

[5] = tested on: M. abscessus MABS7 biofilm; test: as above; settings: 18 h challenge
Text: as §1, §2, §3, §4

[6] = tested on: M. abscessus MABS9 biofilm; test: as above; settings: 18 h challenge
Text: as §1, §2, §3, §4

M. abscessus MABS9 = test: MIC (Table 8); settings: Mycobacteroides abscessus
M. abscessus MABS2 = test: MIC (Table 8); settings: Mycobacteroides abscessus
M. abscessus MABS7 = test: MIC (Table 8); settings: Mycobacteroides abscessus
M. abscessus MABS1 = test: MIC (Table 8); settings: Mycobacteroides abscessus
M. abscessus MABS4 = test: MIC (Table 8); settings: Mycobacteroides abscessus
[7] = tested on: M. abscessus biofilm (six clinical isolates); test: MBEC assay, summary over six clinical isolates; settings: at high concentrations (amikacin, clarithromycin: apart from MABS4)
Text: as §1, §2, §3
Step 3: Recovery. […] The recovery of resistant cells was assessed by an end-point measurement of the optical density at 600 nm (OD600) for each well with a plate reader (FIG. 4).
This is possibly, in part, due to the variable clumping of the cells observed in the biofilm biomass on the pegs. The clumping of the cells also impacted the OD readings. […] For replicate experiments with variable results, the final MBEC values were determined based on the higher MBEC concentration observed among the replicates.

[8] = tested on: M. avium strain 104 (MAH 104) in THP-1 macrophages; test: Mycobacterial survival (CFU) in infected THP-1 macrophages; settings: 4-day and 7-day, drugs at MIC
Protocol: THP-1 macrophages were differentiated with 50 ng/ml PMA for 24 hours, followed by 24 hours in media prior to infection. Differentiated THP-1 macrophages were either infected with M. avium strains or M. abscessus strains for 1 hour with an multiplicity of infection (MOI) of 5 or uninfected. Cells were washed twice, followed by 1 hour of antibiotic treatment with 200 μg/ml of amikacin to remove extracellular bacteria. After the antibiotic step, cells were washed once more and BisEDT (BIZ) or amikacin was added once to selected wells (see in vitro doses below).
The treatments included: vehicle, amikacin, Soluble BisEDT (S Biz), Insoluble BisEDT (I Biz), and amikacin+BisEDT. The time points for sample preparation were 72 h for M. abscessus strains and 4- and 7-days post infection for M. avium strains. At the indicated timepoints cell media was removed and replaced with 400 ul of 0.1% triton x-100 in H2O for lysis. Wells were pipetted 25 times to disrupt cells then diluted and plated for CFU enumeration.

| Structure (SMILES) | MIC (M. abscessus MABS11) | MBEC [1] | MBEC [2] | MBEC [3] | MBEC [4] | MBEC [5] | MBEC [6] | MIC (M. abscessus MABS9) | MIC (M. abscessus MABS2) | MIC (M. abscessus MABS7) | MIC (M. abscessus MABS1) | MIC (M. abscessus MABS4) | biofilm susceptibility, in words [7] | MBEC ([4]; listed as clarithromycin) | mycobacterial survival (CFU, bacterial load) in THP-1 macrophages, in words [8] |
| --- | --- | --- | --- | --- | --- | --- | --- | --- | --- | --- | --- | --- | --- | --- | --- |
| C[C@@H](O)[C@H]1C(=O)N2C(C(=O)O)=C(SCCN=CN)C[C@H]12 [Imipenem] | 8 µg/mL (≈ 26.7 µM) | >64 µg/mL | >16 µg/mL | >32 µg/mL | >64 µg/mL | >64 µg/mL | >64 µg/mL | 16 µg/mL (≈ 53.4 µM) | 1 µg/mL (≈ 3.34 µM) | 16 µg/mL (≈ 53.4 µM) | 8 µg/mL (≈ 26.7 µM) | 8 µg/mL (≈ 26.7 µM) | – | – | – |
| CO[C@@]1(NC(=O)Cc2cccs2)C(=O)N2C(C(=O)O)=C(COC(N)=O)CS[C@@H]21 [Cefoxitin] | 16 µg/mL (≈ 37.4 µM) | >256 µg/mL | >128 µg/mL | >128 µg/mL | >128 µg/mL | >128 µg/mL | >256 µg/mL | 32 µg/mL (≈ 74.9 µM) | 8 µg/mL (≈ 18.7 µM) | 16 µg/mL (≈ 37.4 µM) | 8 µg/mL (≈ 18.7 µM) | 16 µg/mL (≈ 37.4 µM) | resistance | – | – |
| CC[C@H]1OC(=O)[C@H](C)[C@@H](O[C@H]2C[C@@](C)(OC)[C@@H](O)[C@H](C)O2)[C@H](C)[C@@H](O[C@@H]2O[C@H](C)C[C@H](N(C)C)[C@H]2O)[C@](C)(OC)C[C@@H](C)C(=O)[C@H](C)[C@@H](O)[C@]1(C)O [Clarithromycin] | 2 µg/mL (≈ 2.67 µM) | >=32 μg/mL | >32 µg/mL | >32 µg/mL | <=4 μg/mL | >8 µg/mL | >8 µg/mL | 0.25 µg/mL (≈ 0.334 µM) | 4 µg/mL (≈ 5.35 µM) | 0.5 µg/mL (≈ 0.668 µM) | 16 µg/mL (≈ 21.4 µM) | 0.125 µg/mL (≈ 0.167 µM) | resistance | 4 µg/mL | – |
| C1C[S][Bi]([S]CC[S][Bi]2[S]CC[S]2)[S]1 [BisEDT in DMSO] | – | – | – | – | – | – | – | – | – | – | – | – | – | – | bacteriostatic effect |
